Results taken from PubChem BioAssay (NCI).
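Where inhibition never reached the appropriate level, the endpoint shown equals the highest concentration tested. Otherwise, values were interpolated linearly from a five-concentration, 48-hour dose response in 96-well plates. GI50: concentration for 50% inhibition of growth. The concentration for full growth arrest is given as TGI.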

Legend:
Test in all cases: DTP human tumour cell line panel, 48 h
786-0 renal = system: 786-0 renal
A498 renal = system: A498 renal
A549 NSCLC = system: A549 NSCLC
ACHN renal = system: ACHN renal
BT-549 breast = system: BT-549 breast
CAKI-1 renal = system: CAKI-1 renal
CCRF-CEM leukemia = system: CCRF-CEM leukemia
COLO 205 colon = system: COLO 205 colon
DU-145 prostate = system: DU-145 prostate
EKVX NSCLC = system: EKVX NSCLC
HCC-2998 colon = system: HCC-2998 colon
HCT-116 colon = system: HCT-116 colon
HCT-15 colon = system: HCT-15 colon
HL-60(TB) leukemia = system: HL-60(TB) leukemia
HOP-62 NSCLC = system: HOP-62 NSCLC
HOP-92 NSCLC = system: HOP-92 NSCLC
HS 578T breast = system: HS 578T breast
HT29 colon = system: HT29 colon
IGROV1 ovarian = system: IGROV1 ovarian
K-562 leukemia = system: K-562 leukemia
KM12 colon = system: KM12 colon
LOX IMVI melanoma = system: LOX IMVI melanoma
M14 melanoma = system: M14 melanoma
MCF7 breast = system: MCF7 breast
MDA-MB-231 breast = system: MDA-MB-231 breast
MDA-MB-435 = system: MDA-MB-435
MOLT-4 leukemia = system: MOLT-4 leukemia
NCI-H226 lung = system: NCI-H226 lung
NCI-H23 lung = system: NCI-H23 lung
NCI-H460 lung = system: NCI-H460 lung
NCI-H522 lung = system: NCI-H522 lung
NCI/ADR-RES ovarian = system: NCI/ADR-RES ovarian
OVCAR-3 ovarian = system: OVCAR-3 ovarian
OVCAR-4 ovarian = system: OVCAR-4 ovarian
OVCAR-5 ovarian = system: OVCAR-5 ovarian
OVCAR-8 ovarian = system: OVCAR-8 ovarian
PC-3 prostate = system: PC-3 prostate
RPMI-8226 leukemia = system: RPMI-8226 leukemia
RXF 393 renal = system: RXF 393 renal
SF-268 CNS = system: SF-268 CNS
SF-295 CNS = system: SF-295 CNS
SF-539 CNS = system: SF-539 CNS
SK-MEL-2 melanoma = system: SK-MEL-2 melanoma
SK-MEL-28 melanoma = system: SK-MEL-28 melanoma
SK-MEL-5 melanoma = system: SK-MEL-5 melanoma
SK-OV-3 ovarian = system: SK-OV-3 ovarian
SN12C renal = system: SN12C renal
SNB-19 CNS = system: SNB-19 CNS
SNB-75 CNS = system: SNB-75 CNS
SR leukemia = system: SR leukemia
SW-620 colon = system: SW-620 colon
T-47D breast = system: T-47D breast
TK-10 renal = system: TK-10 renal
U251 CNS = system: U251 CNS
UACC-257 melanoma = system: UACC-257 melanoma
UACC-62 melanoma = system: UACC-62 melanoma
UO-31 renal = system: UO-31 renal

`Cc1ccc(C2C3Cc4ccccc4C3=NN2c2ccc(S(=O)(=O)NC(=O)NC3CCCCC3)cc2)cc1` (centres undefined) was tested, and the GI50 (786-0 renal) was 28.6 µM, the TGI (786-0 renal) was > 100 µM and the GI50 (A498 renal) was 22.4 µM. For the same compound, the TGI (A498 renal) was 39.6 µM, the GI50 (A549 NSCLC) was 12 µM and the TGI (A549 NSCLC) was 27.5 µM. The GI50 (ACHN renal) was 14.4 µM, the TGI (ACHN renal) was 28.5 µM and the GI50 (BT-549 breast) was 18 µM. For the same compound, the TGI (BT-549 breast) was 42.9 µM, the GI50 (CAKI-1 renal) was 16 µM and the TGI (CAKI-1 renal) was 42.1 µM. The GI50 (CCRF-CEM leukemia) was 8.33 µM, the TGI (CCRF-CEM leukemia) was 76.4 µM and the GI50 (COLO 205 colon) was 14.7 µM. For the same compound, the TGI (COLO 205 colon) was 33.1 µM, the GI50 (DU-145 prostate) was 23.1 µM and the TGI (DU-145 prostate) was 78.9 µM. It also gave a GI50 (EKVX NSCLC) of 20.2 µM, a TGI (EKVX NSCLC) of 67.1 µM and a GI50 (HCC-2998 colon) of 12.6 µM. The TGI (HCC-2998 colon) was 28.6 µM, the GI50 (HCT-116 colon) was 15.5 µM and the TGI (HCT-116 colon) was > 100 µM. It also gave a GI50 (HCT-15 colon) of 19.4 µM, a TGI (HCT-15 colon) of 76.7 µM and a GI50 (HL-60(TB) leukemia) of 22.9 µM. The TGI (HL-60(TB) leukemia) was 59.7 µM, the GI50 (HOP-62 NSCLC) was 45.7 µM and the TGI (HOP-62 NSCLC) was > 100 µM. The GI50 (HOP-92 NSCLC) was 11.6 µM, the TGI (HOP-92 NSCLC) was 27.6 µM and the GI50 (HS 578T breast) was 23.6 µM. For the same compound, the TGI (HS 578T breast) was 62.7 µM, the GI50 (HT29 colon) was 24.5 µM and the TGI (HT29 colon) was > 100 µM. It also gave a GI50 (IGROV1 ovarian) of 5.75 µM, a TGI (IGROV1 ovarian) of 24.5 µM and a GI50 (K-562 leukemia) of 11.5 µM. For the same compound, the TGI (K-562 leukemia) was 52.3 µM, the GI50 (KM12 colon) was 11.3 µM and the TGI (KM12 colon) was 39.1 µM. It also gave a GI50 (LOX IMVI melanoma) of 17.8 µM, a TGI (LOX IMVI melanoma) of 44.2 µM and a GI50 (M14 melanoma) of 33.5 µM. The TGI (M14 melanoma) was > 100 µM, the GI50 (MCF7 breast) was 13.5 µM and the TGI (MCF7 breast) was > 100 µM. For the same compound, the GI50 (MDA-MB-231 breast) was 28.2 µM, the TGI (MDA-MB-231 breast) was > 100 µM and the GI50 (MDA-MB-435) was 14.6 µM. The TGI (MDA-MB-435) was 41.3 µM, the GI50 (MOLT-4 leukemia) was 7.69 µM and the TGI (MOLT-4 leukemia) was > 100 µM. It also gave a GI50 (NCI-H226 lung) of 21.2 µM, a TGI (NCI-H226 lung) of 54.6 µM and a GI50 (NCI-H23 lung) of 15.2 µM. For the same compound, the TGI (NCI-H23 lung) was 37.1 µM, the GI50 (NCI-H460 lung) was 21.6 µM and the TGI (NCI-H460 lung) was > 100 µM. For the same compound, the GI50 (NCI-H522 lung) was 5.92 µM, the TGI (NCI-H522 lung) was 23.5 µM and the GI50 (NCI/ADR-RES ovarian) was 13.4 µM. For the same compound, the TGI (NCI/ADR-RES ovarian) was 35.1 µM, the GI50 (OVCAR-3 ovarian) was 15 µM and the TGI (OVCAR-3 ovarian) was 37.1 µM. It also gave a GI50 (OVCAR-4 ovarian) of 16.6 µM, a TGI (OVCAR-4 ovarian) of 39.2 µM and a GI50 (OVCAR-5 ovarian) of 27.3 µM. It also gave a TGI (OVCAR-5 ovarian) of 55.7 µM, a GI50 (OVCAR-8 ovarian) of 17.4 µM and a TGI (OVCAR-8 ovarian) of 43.6 µM. The GI50 (PC-3 prostate) was 9.66 µM, the TGI (PC-3 prostate) was 26.2 µM and the GI50 (RPMI-8226 leukemia) was 5.44 µM. It also gave a TGI (RPMI-8226 leukemia) of 40.8 µM, a GI50 (RXF 393 renal) of 18.7 µM and a TGI (RXF 393 renal) of 54.5 µM. The GI50 (SF-268 CNS) was 25.3 µM, the TGI (SF-268 CNS) was > 100 µM and the GI50 (SF-295 CNS) was 17.9 µM. It also gave a TGI (SF-295 CNS) of 54.2 µM, a GI50 (SF-539 CNS) of 20.2 µM and a TGI (SF-539 CNS) of 40.7 µM. The GI50 (SK-MEL-2 melanoma) was 18.6 µM, the TGI (SK-MEL-2 melanoma) was 38.6 µM and the GI50 (SK-MEL-28 melanoma) was 19.9 µM. It also gave a TGI (SK-MEL-28 melanoma) of 38 µM, a GI50 (SK-MEL-5 melanoma) of 14.5 µM and a TGI (SK-MEL-5 melanoma) of 30.3 µM. The GI50 (SK-OV-3 ovarian) was 20.4 µM, the TGI (SK-OV-3 ovarian) was 61.3 µM and the GI50 (SN12C renal) was 16.6 µM. The TGI (SN12C renal) was 33.1 µM, the GI50 (SNB-19 CNS) was 21.3 µM and the TGI (SNB-19 CNS) was 64 µM. For the same compound, the GI50 (SNB-75 CNS) was 44 µM, the TGI (SNB-75 CNS) was > 100 µM and the GI50 (SR leukemia) was 6.25 µM. The TGI (SR leukemia) was 32.1 µM, the GI50 (SW-620 colon) was 16.6 µM and the TGI (SW-620 colon) was 40.1 µM. The GI50 (T-47D breast) was 32.5 µM, the TGI (T-47D breast) was > 100 µM and the GI50 (TK-10 renal) was 11.7 µM. The TGI (TK-10 renal) was 28.4 µM, the GI50 (U251 CNS) was 13.2 µM and the TGI (U251 CNS) was 30.4 µM. For the same compound, the GI50 (UACC-257 melanoma) was 20.2 µM, the TGI (UACC-257 melanoma) was 39.7 µM and the GI50 (UACC-62 melanoma) was 12.7 µM. For the same compound, the TGI (UACC-62 melanoma) was 28.6 µM, the GI50 (UO-31 renal) was 11 µM and the TGI (UO-31 renal) was 26.1 µM.
